Reference: article PMC6153520, “Proteasome inhibition and mechanism of resistance to a synthetic, library-based hexapeptide” (Investigational New Drugs, 2018)
Where two headings read alike, the source gives them in different places. One block for each compound: values may come before it. Where a SMILES comes first, the peptide text is derived from it. The star is where a group is joined. Cbz = O=C(OCc1ccccc1)*; NHBn = c1ccc(CN*)cc1; OBn = c1ccc(CO*)cc1; Bn = c1ccc(C*)cc1; OtBu = CC(C)(C)O*

Legend:
[1] = target: T1, chymotrypsin-like proteasome activity (Homo sapiens, UniProt P28074); assay: Proteasome-Glo cell-based assay in intact THP1 cells; details: 1 h exposure, mean of 3 experiments ± S.D., read-out: IC50, inhibition of chymotrypsin-like proteasome activity
T1 construct: chymotrypsin-like proteasome activity in intact THP1 cells after 1 h exposure; endogenous in cells; host or cells: THP1 (wild type)

[2] = tested on: THP1/WT; type: cell-based, human; details: 72 h
Procedure: Human monocytic/macrophage THP1 cells (ATTC, Manassas, USA) were cultured in RPMI-1640 medium supplemented with 5% fetal calf serum, 20 mM HEPES, 2 mM glutamine and 100 μg/ml penicillin/ streptomycin at 5% CO2 and 37 °C. Cell cultures were seeded at a density of 3 × 10^5 cells/ml and refreshed twice weekly. […] Some specific experiments also included THP1/BTZ100 cells that were cultured in the absence of BTZ for 6 months (further designated as THP1/BTZ (−100) cells). Mouse thymoma EL4 and human multiple myeloma H929 cells were cultured in RPMI-1640 medium supplemented with 8% fetal calf serum and 100 μg/ml penicillin/streptomycin at 5% CO2 and 37 °C.
(§1) Evaluation of drug sensitivity was carried out as described before. Cells were seeded at an initial density of 1.25 × 10^5 cells/ml in individual wells of a 24-well plate containing up to 50 μl of drug solutions. Inhibition of cell growth was determined after 72 h of incubation at 37 °C by determining the number of viable cells […] using trypan blue exclusion. The drug concentration required to inhibit cell growth by 50% compared to untreated controls was defined as the IC50.

[3] = tested on: proteasome β-subunits; assay: Proteasome affinity labelling and recovery in H929 cells; type: cell-based, human; details: 5 μM MG132 (1 h) or 20 nM bortezomib (1 h)
[4] = tested on: THP1/WT cells; assay: Western blot, accumulation of ubiquitinated proteins; type: cell-based, human; details: 24 h exposure
Procedure: Western blot analysis to determine protein levels of (i) β1, β2 and β5 proteasome subunits and (ii) the accumulation of ubiquitinated proteins after treatment with 4A6 was performed essentially as described previously. Cells were harvested in the mid-log phase of growth and washed 3 times with ice-cold buffered saline pH 7.4. Total cell lysates of 5 × 10^6 cells were prepared by resuspension in 500 μl lysis buffer containing: 50 mM Tris-HCl (pH 7.6), 5 mM dithiotreitol, 20 μl PIC (Protease Inhibitor Cocktail; 1 tablet/ml H2O), 20% glycerol and 0.5% NP-40. The suspension was sonicated (MSE sonicator, amplitude 7, for 3 × 5 s with 20 s time intervals at 4 °C) and centrifuged in an Eppendorf micro centrifuge (5 min, 12,000 rpm, 4 °C). Protein content of the supernatant was determined by the Bio-Rad protein assay. 20–30 μg of total cell lysates were fractionated on a 10% polyacrylamide gel containing SDS and transferred onto a PVDF membrane. The membranes were pre-incubated overnight at 4 °C in blocking buffer (5% Bio-Rad Blocker in TBS-T; 10 mM Tris-HCl, pH 8.0, 0.15 M NaCl, 0.1% Tween-20) to prevent non-specific antibody binding. After blocking, the membranes were incubated for 1 h at room temperature with primary antibodies for proteasome subunit β1 (1:1000, PW8140), β2 (1:1000, PW8145) and β5 (1:1000, PW8895) or ubiquitin (1:1000, Santa-Cruz, SC-8017). An antibody to α-tubulin was used (1:1000, Santa Cruz, sc-8035) to check and normalize for any loading differences. After 3 washing steps with TBS-T, the membranes were incubated for 1 h with HRP-labelled donkey-anti-rabbit (1:6000, Amersham, UK) or goat-anti-mouse (1:6000, Dako, Glostrup, Denmark) as secondary antibody. Detection of antibody binding was followed by chemoluminescence using Supersignal (Pierce Biotechnology, Rockford, USA) according to the manufacturers’ instructions. […] The signal intensity was determined densitometrically using Quantity One software (Bio-Rad) and was expressed relative to the intensity of the α-tubulin signal.

[5] = tested on: THP1 cells; assay: Growth inhibition with or without Ruthenium Red; type: cell-based, human; details: 72 h, with or without 25 μM Ruthenium Red
Procedure: as §1

[6] = tested on: NCI60 tumor cell line panel; assay: NCI60 panel COMPARE analysis; type: cell-based, human; details: mean log10GI50, 2 days of drug exposure
[7] = tested on: CCRF-CEM; assay: NCI60 tumor cell line screen; type: cell-based; details: Homo sapiens, Leukemia, 48 h drug exposure, read-out: LOG10 GI50
[8] = tested on: K-562; assay: NCI60 tumor cell line screen; type: cell-based; details: Homo sapiens, K562, Leukemia, 48 h drug exposure, read-out: LOG10 GI50 (converted)
[9] = tested on: A549/ATCC; assay: NCI60 tumor cell line screen; type: cell-based; details: Homo sapiens, NSC Lung, 48 h drug exposure, read-out: LOG10 GI50 (converted)
[10] = tested on: NCI-H226; assay: NCI60 tumor cell line screen; type: cell-based; details: Homo sapiens, NSC Lung, 48 h drug exposure, read-out: LOG10 GI50 (converted)
[11] = tested on: COLO 205; assay: NCI60 tumor cell line screen; type: cell-based; details: Homo sapiens, Colon, 48 h drug exposure, read-out: LOG10 GI50 (converted)
[12] = tested on: HT29; assay: NCI60 tumor cell line screen; type: cell-based; details: Homo sapiens, HT-29, Colon, 48 h drug exposure, read-out: LOG10 GI50 (converted)
[13] = tested on: SNB-19; assay: NCI60 tumor cell line screen; type: cell-based; details: Homo sapiens, CNS, 48 h drug exposure, read-out: LOG10 GI50 (converted)
[14] = tested on: SNB-75; assay: NCI60 tumor cell line screen; type: cell-based; details: Homo sapiens, CNS, 48 h drug exposure, read-out: LOG10 GI50 (converted)
[15] = tested on: SK-MEL-5; assay: NCI60 tumor cell line screen; type: cell-based; details: Homo sapiens, Melanoma, 48 h drug exposure, read-out: LOG10 GI50 (converted)
[16] = tested on: SK-OV-3; assay: NCI60 tumor cell line screen; type: cell-based; details: Homo sapiens, Ovarian, 48 h drug exposure, read-out: LOG10 GI50 (converted)
[17] = tested on: DU-145; assay: NCI60 tumor cell line screen; type: cell-based; details: Homo sapiens, Prostate, 48 h drug exposure, read-out: LOG10 GI50 (converted)
[18] = tested on: HS 578T; assay: NCI60 tumor cell line screen; type: cell-based; details: Homo sapiens, Breast, 48 h drug exposure, read-out: LOG10 GI50 (converted)
[19] = tested on: THP1/WT; set-up: method as in Oerlemans et al. [46]; details: ref Oerlemans et al. [46], cited from earlier work
[20] = tested on: β5 subunit of the proteasome; set-up: method as in PMID 16286248, PMID 16455650; details: ref [15], [21]; read-out: IC50, proteasome inhibition; cited from earlier work
[21] = tested on: THP1/BTZ50; details: relative to THP1/WT; ref Oerlemans et al. [46]; cited from earlier work
[22] = tested on: THP1/BTZ100; details: relative to THP1/WT; ref Oerlemans et al. [46]; cited from earlier work
[23] = tested on: THP1/BTZ200; details: relative to THP1/WT; ref Oerlemans et al. [46]; cited from earlier work
[24] = tested on: THP1/BTZ200 cells; assay: Apoptosis assay (Annexin-V/7-AAD flow cytometry); type: cell-based, human; details: 24 h, 4A6 over 0–25 μM
Procedure: (§2) Induction of apoptosis was analyzed by flow cytometry using APOPTEST™-FITC A700 (VPS Diagnostics, Hoeven, the Netherlands) according to the instructions of the manufacturer. In short, induction of apoptosis was determined after 24 h’ drug exposure. One million cells were harvested and washed 3 times with ice-cold PBS. The cell pellet was incubated for 30 min with 7-Amino-actinomycin D (7-AAD) on ice followed by incubation with Annexin-V according to the instructions of the manufacturer. Annexin-V (early apoptosis) and 7-AAD (late apoptosis) staining was measured by flow cytometry (Beckton & Dickinson, FACScalibur) and analysed using FCSexpress V3 software (Denovo software, Thornhill, Canada).

[25] = tested on: THP1/WT cells; assay: Apoptosis assay (Annexin-V/7-AAD flow cytometry); type: cell-based, human; details: 24 h exposure
Procedure: as §2

[26] = tested on: proteasome; assay: Proteasome inhibitory effect of cleavage product (data not shown)
[27] = Cell growth inhibitory potential of cleavage product (data not shown); type: cell-based

- IC50 [1]: 490 ± 120 nM
Compound: 4A6-dimer: dimer form of 4A6, contains the same amino acid sequence as 4A6 (THTXEG; The dimer linkage, and any protecti)

- IC50 [2]: 3900 ± 800 nM
Compound: CC(=O)N[C@H](C(=O)N[C@@H](CCC(=O)OC(C)(C)C)C(=O)N[C@@H](CCC(=O)OCc1ccccc1)C(=O)N[C@@H](CC(=O)OC(C)(C)C)C(=O)N[C@@H](CCC(=O)OC(C)(C)C)C(=O)NCC(=O)NCc1ccccc1)[C@@H](C)OCc1ccccc1 [4E11, Ac-Thr(OBzl)-Glu(OtBu)-Glu(OBzl)-Asp(OtBu)-Glu(OtBu)-Gly-Bza] (Ac-T(Bn)E(OtBu)E(OBn)D(OtBu)E(OtBu)G-NHBn)

Compound: CC(C)C[C@H](NC(=O)[C@H](Cc1ccccc1)NC(=O)c1cnccn1)B(O)O [Bortezomib, Pyrazylcarbonyl-Phe-Leu-boronate]
- inhibition of β-subunit activity probing [3]: predominantly inhibited β5-subunit probing
- accumulation of ubiquitinated proteins [4]: marked accumulation of ubiquitinated proteins
- effect of Ruthenium Red on growth inhibitory activity (protection) [5]: marked abrogation
- orders of magnitude more potent than 4A6 [6]: 2–3 orders of magnitude
- GI50 [7]: 0.1 nM
- GI50 [8]: 0.422 nM
- GI50 [9]: 2.44 nM
- GI50 [10]: 0.105 nM
- GI50 [11]: 0.363 nM
- GI50 [12]: 0.389 nM
- GI50 [13]: 0.724 nM
- GI50 [14]: 1.95 nM
- GI50 [15]: 0.11 nM
- GI50 [16]: 32.9 nM
- GI50 [17]: 0.891 nM
- GI50 [18]: 0.422 nM
- IC50 ([19]; growth inhibition): 0.0033 ± 0.0006 µM
- [Resistance Factor] THP1/WT ([19]; reference value in square brackets): 1
- IC50 [20]: 3 to 5 nM
- [Resistance Factor] THP1/BTZ50 [21]: 45
- [Resistance Factor] THP1/BTZ100 [22]: 79
- [Resistance Factor] THP1/BTZ200 [23]: 129

Compound: CC(C)C[C@@H](C=O)NC(=O)[C@H](CC(C)C)NC(=O)[C@H](CC(C)C)NC(=O)OCc1ccccc1 [MG132, Z-Leu-Leu-Leucinal] (Cbz-Leu-Leu-Leu-aldehyde)
- inhibition of β-subunit activity probing [3]: blocked activity probing of all β-subunits

Compound: COc1cc([C@@H]2c3cc4c(cc3[C@@H](O[C@@H]3O[C@@H]5CO[C@@H](C)O[C@H]5[C@H](O)[C@H]3O)[C@H]3COC(=O)[C@H]23)OCO4)cc(OC)c1O [etoposide, reference compound]
- induction of apoptosis [24]: equally effective in inducing apoptosis
- induction of apoptosis [25]: equally effective in inducing apoptosis

Compound: Ac-Thr(tBu)-His(Bzl)-Thr(Bzl)-Nle-OH
- proteasome inhibitory effect [26]: did not show any proteasome inhibitory effect
- cell growth inhibitory potential [27]: did not show any proteasome inhibitory effect or cell growth inhibitory potential
